PubChem BioAssay (NCI)
Several values for one entry are separate records, joined by “and”; a condition that tells them apart may be missing. Identical values can stand only once.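 Five compound concentrations were applied to cells in 96-well plates for 48 hours; endpoints were derived by simple linear interpolation of the resulting dose-response curve. At the GI50, growth is halved. Definition used: TGI = concentration required for complete inhibition of growth.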

Tests used:
Test in all cases: DTP human tumour cell line panel, 48 h
MALME-3M melanoma = tested on: MALME-3M melanoma
NCI/ADR-RES ovarian = tested on: NCI/ADR-RES ovarian
CAKI-1 renal = tested on: CAKI-1 renal
MDA-MB-231 breast = tested on: MDA-MB-231 breast
786-0 renal = tested on: 786-0 renal
SF-268 CNS = tested on: SF-268 CNS
M14 melanoma = tested on: M14 melanoma
PC-3 prostate = tested on: PC-3 prostate
MOLT-4 leukemia = tested on: MOLT-4 leukemia
SF-539 CNS = tested on: SF-539 CNS

Compound	TGI (MALME-3M melanoma) [µM]	TGI (NCI/ADR-RES ovarian) [µM]	TGI (CAKI-1 renal) [µM]	TGI (MDA-MB-231 breast) [µM]	TGI (786-0 renal) [µM]	TGI (SF-268 CNS) [µM]	TGI (M14 melanoma) [µM]	TGI (PC-3 prostate) [µM]	TGI (MOLT-4 leukemia) [µM]	TGI (SF-539 CNS) [µM]	GI50 (PC-3 prostate)
CC(=N/NC(=S)N1CCCCCC1)/C(C)=N\NC(=S)N1CCCCCC1	11.1	16.8	12.4	> 22.8	9.79	11.2	57.9	23.8	> 100	> 100	–
O=C(O)c1cc(N=Nc2ccc([N+](=O)[O-])cc2)ccc1O	> 100	> 100	> 100	> 100	> 100	> 100	> 100	> 100	77	> 100	–
COc1ccc(/C=C2/N=C(N/N=C\C(O)C(O)C(O)CO)NC2=O)cc1 (stereo not drawn)	> 100	> 100	> 100	> 100	> 100	> 100	> 100	> 100	> 100	40.1	> 100 µM and 39.3 µM
COc1ccc2c(c1)CC[C@@H]1[C@@H]2CC[C@]2(C)/C(=N/OCCN3CCCC3)CC[C@@H]12	3.17	28.7	3.42	8.92	3.37	14.4	2.64	13.5	4.85	3.92	–
C/C=C1\CC(C(=O)OCC)CCCCCCC1=O (stereo not drawn)	> 100	> 100	> 100	> 100	> 100	> 100	> 100	> 100	> 100	> 100	–
N/C(=N\N=C\c1cc2ccccc2s1)c1cnccn1	–	> 100	> 100	> 100	> 100	> 100	> 100	> 100	–	> 100	–
Cc1cc(OCc2nc(N)nc(N)c2-c2ccc(Cl)c(Cl)c2)ccc1[N+](=O)[O-]	29.5	18.6	31.8	7.24	22.3	36.5	10.7	11.7	> 27.5	22.5	–
Cc1ccc(S(=O)(=O)NC(=O)Nc2c(S(N)(=O)=O)cc(S(N)(=O)=O)c(Cl)c2Cl)cc1	> 100	> 100	> 100	> 100	> 100	> 100	> 100	> 100	> 100	> 100	–
Cc1nc2cn3c(c2c(=O)[nH]1)CCCCC3	–	> 100	> 100	69.7	> 100	> 100	> 100	> 100	> 100	> 100	–
O=S(=O)(O)c1ccc2c(N=Nc3cccc4ccccc34)c(O)ccc2c1	> 100	> 100	> 100	> 100	> 100	> 100	> 100	> 100	> 100	–	–
Cc1ccc(C2(O)c3ccccc3C(=O)N(C)C2(O)c2ccc(C)cc2)cc1 (stereo not drawn)	> 100	> 100	> 100	> 100	> 100	50.6	> 100	> 100	35.1	> 100	–
COc1ccccc1C1C2=C(COC2=O)Oc2cc3c(cc21)OCO3 (stereo not drawn)	> 100	> 39.8	> 100	> 87.6	28	85.8	> 33.4	> 100	> 100	5.32	–
O=Cc1c2c(cc3c1CC1(C3)Cc3cc4c(c(C=O)c3C1)CCCC4)CCCC2	> 31.6	> 31.6	> 100	> 31.6	> 31.6	> 100	> 31.6	> 31.6	23.2	> 31.6	–
Cc1cccc2c(N)c3cccc(C(=O)NCC[N+](C)(C)Cc4ccc([N+](=O)[O-])n4C)c3nc12	41.3	98.9	> 51.2	> 72.6	> 63.9	61.9	> 69.6	> 75.2	25.4	52.5	–
COc1ccccc1-n1cnc2c1NC(C)(C)N=C2C(N)=O	> 100	> 100	> 100	> 100	> 100	> 100	> 100	> 100	–	> 100	–
CC(=O)Nc1ccc(NC(=O)CC(=O)Nc2ccc(NC(C)=O)cc2)cc1	> 100	> 100	> 100	> 100	> 100	> 100	> 100	> 100	> 100	> 100	–
O=c1oc2ccc([N+](=O)[O-])cc2nc1/C=C(\O)c1ccccc1	> 100	> 100	> 100	> 100	> 100	> 100	> 100	> 100	> 100	–	–
COC(=O)[C@H](CNC(=O)/C=C/c1ccc(OC(C)=O)c(OC(C)=O)c1)NC(=O)/C=C/c1ccc(OC(C)=O)c(OC(C)=O)c1	> 100	> 100	> 100	> 100	> 100	–	> 100	> 100	> 100	> 100	–
Cc1cc(C)cc(Nc2nnc3n2S(=O)(=O)c2cc(C)c(Cl)cc2S3)c1	13.7	9.26	> 100	33.2	> 100	31.1	33.4	10.1	> 100	13.7	–
c1ccc(-c2csc3c2-n2cccc2C3N2CCCC2)cc1 (stereo not drawn)	> 100	> 100	> 100	> 100	> 100	78.7	–	> 100	> 100	> 100	–
N=c1c2sc3nc4ccccc4n3c2ncn1Cc1ccccc1	> 100	> 100	> 100	> 100	> 100	> 100	> 100	> 100	> 100	> 100	–
